# Reference: the NIST ThermoML archive (doi:10.1016/j.jct.2010.04.003)
# Numbers after ± are expanded uncertainties.
# Settings: 101.33 kPa, Liquid, Buoyancy - hydrostatic balance with magnetic suspension - one sinker
structure (smiles),measurement,setting,value
CN(C)P(=O)(N(C)C)N(C)C [tris(dimethylamino)phosphine oxide],mass density,288.15 K,1028.54 ± 0.33 kg/m3
same,mass density,293.15 K,1024.33 ± 0.33 kg/m3
same,mass density,298.15 K,1020.03 ± 0.33 kg/m3
same,mass density,303.15 K,1015.86 ± 0.32 kg/m3
same,mass density,308.15 K,1011.61 ± 0.32 kg/m3
